How the values were obtained:
[1] = test system: lipoxygenase and cyclooxygenase; conditions: known inhibitors, statement in words; cited from earlier work
[2] = test system: Acute inflammatory oedema of the paws; assay: Rat paw oedema test (carrageenin); assay type: in vivo; conditions: po, i.g., 1 hour after carrageenin injection, inhibition of increase in paw volume, male rats
Protocol: Acute inflammatory oedema of the paws was induced in male rats (100-120 g) by subplantar injection of 0.1 ml of 2% carrageenin (dissolved in aqueous 0.9% NaCl solution). The volume of the paws was measured with a paw volume measuring instrument 1 hour and 4 hours after the carrageenin injection. The differences in paw volume between the two measurements was calculated. The test substances were suspended in 1% tylose and administered intragastrally through a stomach tube one hour after the carrageenin injection.
The controls were given vehicle alone (1% tylose). The percentage inhibition of increase in volume in the treated animals was obtained from a comparison with the untreated controls. The average inhibitory doses (ED50) were calculated on the basis of the regression graphs.

[3] = test system: LTC 4 synthesis and release; assay: Inhibition of LTC 4 synthesis and release in vitro; assay type: cell-based
[4] = test system: PGE 2 synthesis and release; assay: Inhibition of PGE 2 synthesis and release in vitro; assay type: cell-based
leucocyte migration = assay: Leucocyte migration test (carrageenin-soaked polyester sponges); assay type: in vivo, rat; conditions: male rats, 24 hours
Protocol: Polyester sponges soaked in 2% carrageenin solution were implanted subcutaneously in the neck region of male rats (140-150 g) (see G. A. Higgs et al, Eur. J. Pharmacol. 66, 81 (1980), A. W. Ford-Hutchinson et al, J.Pharmacol. Methods 1, 3 (1978)). The sponges were removed after 24 hours. The leucocytes which had migrated in were washed out with a PBS solution (pH 7.4, 0.5% trypsin, 10 units/ml of heparin) for 30 minutes at 37° C. The sponges were then carefully squeezed and centrifuged (15 minutes, 500 revs/min). The leucocytes in the washing liquid were then counted. The test substances which had been taken up in 1% tylose and the vehicle (1% tylose) were administered intragastrally with a stomach tube immediately after implantation of the sponge and then after 5 hours and after 21 hours. The percentage inhibition of leucocyte migration after administration of the test substances was determined by comparison with the controls. The average inhibitory doses (ED50) were calculated from the regression graphs.

SMILES	selective inhibitory action on lipoxygenase or inhibition of both lipoxygenase and cyclooxygenase [1]	ED50 [2] [mg/kg]	LTC 4 (% of controls) ([3]; at 10^-5)	LTC 4 (% of controls) ([3]; at 10^-6)	PGE 2 (% of controls) ([4]; at 10^-4)	PGE 2 (% of controls) ([4]; at 10^-5)	PGE 2 (% of controls) ([4]; at 10^-6)	Inhibition of leucocyte migration (control = 0%) (leucocyte migration; 40 mg/kg i.g.) [%]	LTC 4 (% of controls) ([3]; at 10^-4)	Inhibition of leucocyte migration (control = 0%) (leucocyte migration; 50 mg/kg i.g.) [%]
CC(C(=O)O)c1ccc2oc(-c3ccc(Cl)cc3)nc2c1 (centres unmarked) [Benoxaprofene]	known inhibitors of this kind									
CC=NNc1nc2ccccc2s1 [Example 1, N-(benzothiazol-2-yl)-acetaldehyde hydrazone]		15	> 100 % of controls	> 100 % of controls	12 % of controls	38 % of controls	89 % of controls	50		
CC(C)=NNc1nc2ccccc2s1 [Example 2, N-(benzothiazol-2-yl)-acetone hydrazone]		10	41 % of controls	89 % of controls	20 % of controls	43 % of controls	103 % of controls		16 % of controls	34
CCC=NNc1nc2ccccc2s1 [Example 3, N-(benzothiazol-2-yl)-propionaldehyde hydrazone]		20	> 100 % of controls	> 100 % of controls	8 % of controls	37 % of controls	61 % of controls		24 % of controls	
CCC(C)=NNc1nc2ccccc2s1 [Example 4, N-(benzothiazol-2-yl)-methyl ethyl ketone hydrazone]		10								
CC=NNc1nc2ccccc2o1 [Example 5, N-(benzoxazol-2-yl)-acetaldehyde hydrazone]		20								
CC(C)=NNc1nc2ccccc2o1 [Example 6, N-(benzoxazol-2-yl)-acetone hydrazone]		10								
CCC=NNc1nc2ccccc2o1 [Example 7, N-(benzoxazol-2-yl)-propionaldehyde hydrazone]		20								
O=CNNc1nc2ccccc2s1 [Example 8, benzothiazol-2-one-(β-formyl hydrazone)]		14	70 % of controls	> 100 % of controls	82 % of controls	112 % of controls	105 % of controls		11 % of controls	67

From patent US4600721A, “Pharmaceutical preparation” (Ludwig Heumann & Co., GmbH, priority 1984, dated 1986)
